Assay: Degradation temperature by thermal gravimetric analysis (TGA) or differential scanning calorimetry (DSC)
Type: physicochemical
Protocol: The degradation temperature was determined by thermal gravimetric analysis (TGA) or differential scanning calorimetry (DSC).

With zinc pyrithione [A (comp)] the “Degradation Temp” value was 265 °C.
